Assays:
[1] = system: P190L homozygous mutant strain seedlings; assay: Identification of herbicide resistance spectrum; type: in vivo, watermelon; conditions: leaf spray, tribenuron 15, halosulfuron 33.75, bensulfuron 22.5, pyrazosulfuron 24, flumetsulam 48, flucarbazone 31.5 g ai/ha, 7 days
Source text: (§1) Watermelon seeds to be tested are seeds of non-transgenic watermelon, seeds of P190L homozygous mutant strain, seeds of P190S homozygous mutant strain, seeds of P190L heterozygous mutant strain, or seeds of P190S heterozygous mutant strain.
(§2) The experiment was repeated three times, and the steps for each are as follows:
(§3) 1. Planting 5 watermelon seeds to be tested in the field and culturing routinely for 10 days until the cotyledons are flattened to obtain the watermelon seedlings to be tested.
(§4) 2. After step 1 is completed, taking the watermelon seedlings to be tested and spraying the leaves with tribenuron, halosulfuron, bensulfuron, pyrazosulfuron, flumetsulam, and flucarbazone, respectively (spraying dose of tribenuron, halosulfuron, bensulfuron, pyrazosulfuron, flumetsulam, and flucarbazone were 15, 33.75, 22.5, 24, 48, and 31.5 g ai/ha; g represents gram, ai represents the active ingredient, ha represents hectare), and then culturing for 7 days to observe the growth status of the watermelon seedling to be tested.
(§5) 3. After step 1 is completed, taking the watermelon seedlings to be tested, spraying the leaves with the same volume of water as the herbicide in step 2, and then culturing for 7 days, to observe the growth status of the watermelon seedlings as a control.

[2] = system: P190L heterozygous mutant strain seedlings; assay: Identification of herbicide resistance spectrum; type: in vivo, watermelon; conditions: leaf spray, tribenuron 15, halosulfuron 33.75, bensulfuron 22.5, pyrazosulfuron 24, flumetsulam 48, flucarbazone 31.5 g ai/ha, 7 days
Source text: as §1, §2, §3, §4, §5

[3] = system: P190S homozygous mutant strain seedlings; assay: Identification of herbicide resistance spectrum; type: in vivo, watermelon; conditions: leaf spray, tribenuron 15, halosulfuron 33.75, bensulfuron 22.5, pyrazosulfuron 24, flumetsulam 48, flucarbazone 31.5 g ai/ha, 7 days
Source text: as §1, §2, §3, §4, §5

[4] = system: P190S heterozygous mutant strain seedlings; assay: Identification of herbicide resistance spectrum; type: in vivo, watermelon; conditions: leaf spray, tribenuron 15, halosulfuron 33.75, bensulfuron 22.5, pyrazosulfuron 24, flumetsulam 48, flucarbazone 31.5 g ai/ha, 7 days
Source text: as §1, §2, §3, §4, §5

[5] = system: non-transgenic watermelon seedlings; assay: Identification of resistance to the herbicide tribenuron, seedlings sprayed in the field; type: in vivo; conditions: leaf spray 17 g ai/ha
Source text: (§6) The watermelon seeds to be tested are seeds of non-transgenic watermelon, seeds of P190L homozygous mutant strains, seeds of P190S homozygous mutant strains, seeds of P190L heterozygote mutant strains, or seeds of P190S heterozygote mutant strains.
(§7) The experiment was repeated three times, and the steps for each were as follows:
(§8) 1. Planting 20 watermelon seeds to be tested in the field and culturing routinely to obtain watermelon seedlings to be tested in a two-leaf one-heart period.
(§9) 2. After step 1 is completed, taking the watermelon seedlings to be tested, spraying the leaves with tribenuron (the spraying dose is 17 g ai/ha; g represents gram, ai represents the active ingredient, and ha represents hectare), and then culturing routinely for 7 days to observe the growth status of the watermelon seedlings to be tested.

[6] = system: P190L homozygous mutant strain seedlings; assay: as above; type: in vivo, watermelon; conditions: leaf spray 17 g ai/ha
Source text: as §6, §7, §8, §9

[7] = system: P190L heterozygous mutant strain seedlings; assay: as above; type: in vivo, watermelon; conditions: leaf spray 17 g ai/ha, observed 7 days
Source text: as §6, §7, §8, §9

[8] = system: P190S homozygous mutant strain seedlings; assay: as above; type: in vivo, watermelon; conditions: leaf spray 17 g ai/ha
Source text: as §6, §7, §8, §9

[9] = system: P190S heterozygous mutant strain seedlings; assay: as above; type: in vivo, watermelon; conditions: leaf spray 17 g ai/ha, observed 7 days
Source text: as §6, §7, §8, §9

SMILES	resistance of seedlings to the herbicide compared with non-transgenic watermelon [1]	resistance of seedlings to the herbicide compared with non-transgenic watermelon [2]	resistance of seedlings to the herbicide compared with non-transgenic watermelon [3]	resistance of seedlings to the herbicide compared with non-transgenic watermelon [4]	time to death of seedlings after spraying [5]	growth status of the watermelon seedlings after spraying ([5]; two-leaf one-heart period, observed 7 days)	growth after spraying compared with seedlings of the heterozygous mutant strains ([6]; 7 days)	growth status of the watermelon seedlings after spraying ([6]; observed 7 days)	growth status of the watermelon seedlings after spraying [7]	growth after spraying compared with seedlings of the heterozygous mutant strains ([8]; 7 days)	growth status of the watermelon seedlings after spraying ([8]; observed 7 days)	growth status of the watermelon seedlings after spraying [9]
COc1cc(OC)nc(NC(=O)NS(=O)(=O)Cc2ccccc2C(=O)O)n1 [bensulfuron]	obvious resistance	obvious resistance	obvious resistance	obvious resistance								
COc1nn(C(=O)NS(=O)(=O)c2ccccc2OC(F)(F)F)c(=O)n1C [flucarbazone]	obvious resistance	obvious resistance	obvious resistance	obvious resistance								
Cc1ccn2nc(S(=O)(=O)Nc3c(F)cccc3F)nc2n1 [flumetsulam]	obvious resistance	obvious resistance	obvious resistance	obvious resistance								
COc1cc(OC)nc(NC(=O)NS(=O)(=O)c2c(C(=O)O)c(Cl)nn2C)n1 [halosulfuron]	obvious resistance	obvious resistance	obvious resistance	obvious resistance								
COc1cc(OC)nc(NC(=O)NS(=O)(=O)c2c(C(=O)O)cnn2C)n1 [pyrazosulfuron]	obvious resistance	obvious resistance	obvious resistance	obvious resistance								
COc1nc(C)nc(N(C)C(=O)NS(=O)(=O)c2ccccc2C(=O)O)n1 [tribenuron]	obvious resistance	obvious resistance	obvious resistance	obvious resistance	3 to 7 days	died quickly	grew better	grew normally	grew normally	grew better	grew normally	grew normally

— US20200340007A1, “CLALS PROTEIN, ITS CODING GENE AND USE IN PREDICTING THE HERBICIDE RESISTANCE OF WATERMELON” (BEIJING ACADEMY OF AGRICULTURE AND FORESTRY SCIENCES, priority 2018, published 2020)
